Key:
Type in all cases: cell-based
RS4;11-BCL-2 F104L cells = test: Cell proliferation assay (MTS), RS4;11-BCL-2 F104L engineered cells; conditions: Homo sapiens, 120 h, read-out: RS4, 11 BCL2-F104L IC50
From the text: MTS testing kit was purchased from Promega (Madison, WI, USA). The RPMI-1640, Fetal bovine serum and Penicillin-Streptomycin were purchased from BI (Biological Industries, Beit Haemek, Israel). Puromycin was purchased from Beyotime (shanghai, China). Dimethyl sulfoxide (DMSO) was purchased from Sigma (St. Louis., MO, USA). RS4;11-BCL-2 G101V (Cobioer Lot. #: CBD2021063013P4), RS4;11-BCL-2 D103E (Cobioer Lot. #: CBD2021063013P4), RS4;11-BCL-2 D103Y (Cobioer Lot. #: CBD2022012101P4) and RS4;11-BCL-2 F104L (Cobioer Lot. #: CBD2021063014P4) cells were cultured in RPMI1640 supplemented with 1 ug/mL puromycin, 100 U/mL Penicillin-Streptomycin and 10% FBS.
To investigate whether a compound is able to inhibit the activity of BCL-2 mutation in cells, a mechanism-based assay using engineered cell lines stably overexpressing BCL-2 mutation (RS4;11-BCL-2 G101V, RS4;11-BCL-2 D103E, RS4;11-BCL-2 D103Y, and RS4;11-BCL-2 F104L) was developed. In this assay, the inhibition of BCL-2 mutation was reflected by the inhibition of cell proliferation of engineered RS4;11 cells. Cells were plated into 96-well plates at optimized cell density (RS4;11-BCL-2 G101V: 5000 cells/well; RS4;11-BCL-2 D103E: 7500 cells/well; RS4;11-BCL-2 D103Y: 7500 cells/well; RS4;11-BCL-2 F104L: 5000 cells/well). Plates were incubated at 37° C., with 5% CO2 for 4 h (RS4;11-BCL-2 G101V, RS4;11-BCL-2 F104L) and 24 h (RS4;11-BCL-2 D103E, RS4;11-BCL-2 D103Y), respectively. Compounds were serially diluted and added to the plates with the final concentrations of 10000, 3333.3, 1111.1, 370.4, 123.5, 41.2, 13.7, 4.6 and 1.5 nM. Plates were incubated at 37° C., with 5% CO2 for 120 h (RS4; 11-BCL-2 G101V, RS4; 11-BCL-2 F104L) and 72 h (RS4;11-BCL-2 D103E, RS4;11-BCL-2 D103Y), respectively. 20 μl MTS was added into each well and the plates were incubated at 37° C., with 5% CO2 exactly for 2 h. The absorbance was measured by a microplate reader at 490 nm. IC50 values were calculated using GraphPad Prism 8.0 software.

RS4;11-BCL-2 G101V cells = test: Cell proliferation assay (MTS), RS4;11-BCL-2 G101V engineered cells; conditions: Homo sapiens, 120 h, read-out: RS4, 11 BCL2-G101V IC50
In short: (§1)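 Inhibition of mutant BCL-2 is inferred from reduced proliferation of RS4;11 cells stably overexpressing the mutant. Compounds are tested at 1.5–10000 nM for 120 h (G101V, F104L) or 72 h (D103E, D103Y), with MTS absorbance at 490 nm used to derive IC50.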

Toledo cells = test: Cell proliferation assay (MTS), Toledo cells; conditions: Homo sapiens, 72 h
In short: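 Toledo cells (RPMI-1640, 10% FBS) seeded at 30000 cells/well, rested 4 h, then exposed 72 h at 37 °C, 5% CO2 to compound at nine final concentrations, 1.5–10000 nM. Viability by MTS (2 h), absorbance at 490 nm. IC50 from the concentration-response.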

RS4;11-BCL-2 D103E cells = test: Cell proliferation assay (MTS), RS4;11-BCL-2 D103E engineered cells; conditions: Homo sapiens, 72 h, read-out: RS4, 11 BCL2-D103E IC50
In short: as §1

COc1ccc(CN2CCC(N3CC4(CCN(c5ccc(C(=O)NS(=O)(=O)c6cnc(NC[C@H]7CC[C@](C)(O)CC7)c([N+](=O)[O-])c6)c(Oc6cc7c(F)c[nH]c7nc6OC)c5)CC4)C3)C(c3ccccc3C(C)C)C2)cc1 (stereo partly shown) [Example 19, 2-((3-fluoro-6-methoxy-1H-pyrrolo[2,3-b]pyridin-5-yl)oxy)-N-((6-((((1r,4r)-4-hydroxy-4-methylcyclohexyl)methyl)amino)-5-nitropyridin-3-yl)sulfonyl)-4-(2-(3-(2-isopropylphenyl)-1-(4-methoxybenzyl)piperidin-4-yl)-2,7-diazaspiro[3.5]nonan-7-yl)benzamide] was tested, and the IC50 (RS4;11-BCL-2 F104L cells) was 1 nM.

For COc1cc(CN2CCN(C3CC4(CCN(c5ccc(C(=O)NS(=O)(=O)c6cnc(NC[C@H]7CC[C@](C)(O)CC7)c([N+](=O)[O-])c6)c(Oc6cc7c(F)c[nH]c7nc6OC)c5)CC4)C3)[C@H](c3ccccc3C(C)C)C2)cc(C#N)n1 [Example 56, 4-(2-((R)-4-((2-cyano-6-methoxypyridin-4-yl)methyl)-2-(2-isopropylphenyl)piperazin-1-yl)-7-azaspiro[3.5]nonan-7-yl)-2-((3-fluoro-6-methoxy-1H-pyrrolo[2,3-b]pyridin-5-yl)oxy)-N-((6-((((1r,4r)-4-hydroxy-4-methylcyclohexyl)methyl)amino)-5-nitropyridin-3-yl)sulfonyl)benzamide], the IC50 (RS4;11-BCL-2 G101V cells) was 2 nM and the IC50 (RS4;11-BCL-2 F104L cells) was 3 nM.

For CCOc1nc2[nH]cc(F)c2cc1Oc1cc(N2CCC3(CC2)CN(C2CCN(Cc4ccc(OC)cc4)CC2c2ccccc2C(C)C)C3)ccc1C(=O)NS(=O)(=O)c1cnc(NC[C@H]2CC[C@](C)(O)CC2)c([N+](=O)[O-])c1 (stereo partly shown) [Example 20, 2-((6-ethoxy-3-fluoro-1H-pyrrolo[2,3-b]pyridin-5-yl)oxy)-N-((6-((((1r,4r)-4-hydroxy-4-methylcyclohexyl)methyl)amino)-5-nitropyridin-3-yl)sulfonyl)-4-(2-(3-(2-isopropylphenyl)-1-(4-methoxybenzyl)piperidin-4-yl)-2,7-diazaspiro[3.5]nonan-7-yl)benzamide], the IC50 (RS4;11-BCL-2 F104L cells) was 3 nM.

For CCOc1nc2[nH]cc(F)c2cc1Oc1cc(N2CCC3(CC2)CC(N2CCC[C@H]2c2ccccc2C(C)C)C3)ccc1C(=O)NS(=O)(=O)c1cnc(NC[C@H]2CC[C@](C)(O)CC2)c([N+](=O)[O-])c1 [Example 90, 2-((6-ethoxy-3-fluoro-1H-pyrrolo[2,3-b]pyridin-5-yl)oxy)-N-((6-((((1r,4r)-4-hydroxy-4-methylcyclohexyl)methyl)amino)-5-nitropyridin-3-yl)sulfonyl)-4-(2-((S)-2-(2-isopropylphenyl)pyrrolidin-1-yl)-7-azaspiro[3.5]nonan-7-yl)benzamide], the IC50 (RS4;11-BCL-2 F104L cells) was 1 nM.

COc1cc(CN2CCN(C3CC4(CCN(c5ccc(C(=O)NS(=O)(=O)c6cnc(NC[C@H]7CC[C@](C)(O)CC7)c([N+](=O)[O-])c6)c(Oc6cc7c(F)c[nH]c7nc6OC)c5)CC4)C3)[C@H](c3ccccc3C(C)C)C2)cc(C)n1 [Example 55, 2-((3-fluoro-6-methoxy-1H-pyrrolo[2,3-b]pyridin-5-yl)oxy)-N-((6-((((1r,4r)-4-hydroxy-4-methylcyclohexyl)methyl)amino)-5-nitropyridin-3-yl)sulfonyl)-4-(2-((R)-2-(2-isopropylphenyl)-4-((2-methoxy-6-methylpyridin-4-yl)methyl)piperazin-1-yl)-7-azaspiro[3.5]nonan-7-yl)benzamide] was tested, and the IC50 (RS4;11-BCL-2 G101V cells) was 1 nM and the IC50 (RS4;11-BCL-2 F104L cells) was 1 nM.

COc1ccc(CN2CCN(C3CC4(CCN(c5ccc(C(=O)NS(=O)(=O)c6cnc(NC[C@H]7CC[C@](C)(O)CC7)c([N+](=O)[O-])c6)c(Oc6cnc7[nH]ccc7c6)c5)CC4)C3)[C@H](c3ccccc3C(C)C)C2)cc1 [Example 61, 2-((1H-pyrrolo[2,3-b]pyridin-5-yl)oxy)-N-((6-((((1r,4r)-4-hydroxy-4-methylcyclohexyl)methyl)amino)-5-nitropyridin-3-yl)sulfonyl)-4-(2-((R)-2-(2-isopropylphenyl)-4-(4-methoxybenzyl)piperazin-1-yl)-7-azaspiro[3.5]nonan-7-yl)benzamide] gave an IC50 (RS4;11-BCL-2 F104L cells) of 1 nM.

COc1c(F)cc(CN2CCN(C3CC4(CCN(c5ccc(C(=O)NS(=O)(=O)c6cnc(NC[C@H]7CC[C@](C)(O)CC7)c([N+](=O)[O-])c6)c(Oc6cnc7[nH]cc(F)c7c6)c5)CC4)C3)[C@H](c3ccccc3C(C)C)C2)cc1F [Example 248, 4-(2-((R)-4-(3,5-difluoro-4-methoxybenzyl)-2-(2-isopropylphenyl)piperazin-1-yl)-7-azaspiro[3.5]nonan-7-yl)-2-((3-fluoro-1H-pyrrolo[2,3-b]pyridin-5-yl)oxy)-N-((6-((((1r,4r)-4-hydroxy-4-methylcyclohexyl)methyl)amino)-5-nitropyridin-3-yl)sulfonyl)benzamide] was tested, and the IC50 (RS4;11-BCL-2 G101V cells) was 1 nM, the IC50 (Toledo cells) was 1 nM and the IC50 (RS4;11-BCL-2 D103E cells) was 3 nM.

Molecule COc1ccc(CN2CCN(C3CC4(CCN(c5ccc(C(=O)NS(=O)(=O)c6cnc(NC[C@H]7CC[C@](C)(O)CC7)c([N+](=O)[O-])c6)c(Oc6cc7c(F)c[nH]c7nc6OC)c5)CC4)C3)[C@H](c3ccccc3C(C)C)C2)nc1 [Example 122, 2-((3-fluoro-6-methoxy-1H-pyrrolo[2,3-b]pyridin-5-yl)oxy)-N-((6-((((1r,4r)-4-hydroxy-4-methylcyclohexyl)methyl)amino)-5-nitropyridin-3-yl)sulfonyl)-4-(2-((R)-2-(2-isopropylphenyl)-4-((5-methoxypyridin-2-yl)methyl)piperazin-1-yl)-7-azaspiro[3.5]nonan-7-yl)benzamide] has an IC50 (RS4;11-BCL-2 G101V cells) of 1 nM, an IC50 (Toledo cells) of 1 nM and an IC50 (RS4;11-BCL-2 D103E cells) of 3 nM.

In the case of CCOc1nc2[nH]cc(F)c2cc1Oc1cc(N2CCC3(CC2)CC(N2CCOC[C@H]2c2ccccc2C(C)C)C3)ccc1C(=O)NS(=O)(=O)c1cnc(NC[C@H]2CC[C@](C)(O)CC2)c([N+](=O)[O-])c1 [Example 88, 2-((6-ethoxy-3-fluoro-1H-pyrrolo[2,3-b]pyridin-5-yl)oxy)-N-((6-((((1r,4r)-4-hydroxy-4-methylcyclohexyl)methyl)amino)-5-nitropyridin-3-yl)sulfonyl)-4-(2-((R)-3-(2-isopropylphenyl)morpholino)-7-azaspiro[3.5]nonan-7-yl)benzamide], the IC50 (RS4;11-BCL-2 F104L cells) is reported as 1 nM.

Work on COc1cc(CN2CCC(N3CC4(CCN(c5ccc(C(=O)NS(=O)(=O)c6cnc(NC[C@H]7CC[C@](C)(O)CC7)c([N+](=O)[O-])c6)c(Oc6cc7c(F)c[nH]c7nc6OC)c5)CC4)C3)[C@H](c3ccccc3C(C)C)C2)ccn1 (single isomer, unassigned) [Example 363, 2-((3-fluoro-6-methoxy-1H-pyrrolo[2,3-b]pyridin-5-yl)oxy)-N-((6-((((1r,4r)-4-hydroxy-4-methylcyclohexyl)methyl)amino)-5-nitropyridin-3-yl)sulfonyl)-4-(2-(3-(2-isopropylphenyl)-1-((2-methoxypyridin-4-yl)methyl)piperidin-4-yl)-2,7-diazaspiro[3.5]nonan-7-yl)benzamide] yielded an IC50 (RS4;11-BCL-2 F104L cells) of 1 nM.

COc1cc(CN2CCN(C3CC4(CCN(c5ccc(C(=O)NS(=O)(=O)c6cnc(NC[C@H]7CC[C@](C)(O)CC7)c([N+](=O)[O-])c6)c(Oc6cnc7[nH]cc(F)c7c6)c5)CC4)C3)[C@H](c3ccccc3C(C)C)C2)ccn1 [Example 243, 2-((3-fluoro-1H-pyrrolo[2,3-b]pyridin-5-yl)oxy)-N-((6-((((1r,4r)-4-hydroxy-4-methylcyclohexyl)methyl)amino)-5-nitropyridin-3-yl)sulfonyl)-4-(2-((R)-2-(2-isopropylphenyl)-4-((2-methoxypyridin-4-yl)methyl)piperazin-1-yl)-7-azaspiro[3.5]nonan-7-yl)benzamide] was tested, and the IC50 (RS4;11-BCL-2 G101V cells) was 1 nM, the IC50 (Toledo cells) was 1 nM and the IC50 (RS4;11-BCL-2 D103E cells) was 1 nM.
